These results are taken from patent US5324747A, “N-substituted anilines, inhibitors of phospholipases A2” (Hoffmann-La Roche Inc., priority 1992, dated 1994).

In experiment [1] the test system is rat carrageenan-induced paw edema. Kind of experiment: Rat Carrageenan Paw Edema. The following applies: 2 h, 30 mg/kg ip. Type of experiment: in vivo, Lewis rats. On the procedure:
Rat Carrageenan Paw Edema
Representative compounds of the invention were tested in rat carrageenan-induced paw edema to determine their ability to inhibit this acute inflammatory response. Test compounds are administered intraperitoneally or orally to groups of seven Lewis rats (≈200 gm) 1 hr prior to carrageenan administration. The test compounds are dissolved in dimethyl sulfoxide for intraperitoneal administration and dissolved or suspended in Labrafil […] for oral administration. At 0 hour, 0.1 mL of 1% carrageenan dissolved in pyrogen free saline is injected subplantarly into the right hind paw to elicit the inflammatory response. The volume (in mL) of the right hind paw is measured by immersion of the paw to the level of the lateral malleolus in an aqueous plethysmometer immediately prior to the injection of carrageenan and then at 1, 2 and 4 hr after carrageenan injection. The paw edema is calculated by substracting the zero time reading from the readings taken after injection. The percent change of the edema volume from the vehicle treated control is calculated to determine the activity of the test compound. Statistical analysis of the mean paw edema values of the control versus the treated groups are performed using Student's t-test.
On the technique in general: The carrageenan paw model is a standard test of acute inflammation.

The next experiment deals with PLA2 Rat Paw Edema. Kind of experiment: Phospholipase A2 Rat Paw Edema. Type of experiment: in vivo, Lewis rats. The following applies: Rattus norvegicus; 2 hr; 30 mg/kg; read-out: % Inhib of PLA2 Rat Paw Edema 2 hr (30 mg/kg). The procedure, abridged: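 Lewis rats (~200 g, n=7) dosed i.p. (in DMSO) or orally (in Labrafil M-1944CS) 1 h before subplantar injection of 5 ug Naja naja PLA2 into right hind paw. Paw volume by plethysmometry at 0.5, 2 and 4 hr minus baseline; % change versus vehicle, Student's t-test.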

For a further experiment, the target named is T1, HSF-PLA2 (Homo sapiens, UniProt P14555).
T1 construct: extracellular enzyme obtained from human synovial fluid (HSF-PLA2); from tissue; host or cells: pooled human synovial fluid, added at 0.1% (v/v)
T1 sequence (P14555 21-144): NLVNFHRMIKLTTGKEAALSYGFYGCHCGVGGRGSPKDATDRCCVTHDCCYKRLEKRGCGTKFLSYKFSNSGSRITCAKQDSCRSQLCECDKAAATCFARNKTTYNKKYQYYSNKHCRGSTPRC
Kind of experiment: Assay for Inhibition of HSF-PLA2 In Vitro. The following applies: for IC50: read-out: Inhib of HSF-PLA2 IC50. Type of experiment: biochemical. The method in brief: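 Extracellular PLA2 isolated from human synovial fluid, incubated 30 min at 37 °C with 14C-labelled phospholipid substrate in duplicate. Lipids were chloroform-extracted, and released 14C-oleic acid was separated from substrate by silica TLC; a no-enzyme control was run in each experiment.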

In experiment [2] the test system is Croton Oil Mouse Ear Edema. Kind of experiment: Croton Oil Mouse Ear Edema Test. It is filed as in vivo, CD-1 mice. The following applies: topical, coapplied, 6 hours.
Experimental: Twenty five μl of a 1% croton oil solution [dissolved in a mixture of pyridine/water/diethyl ether at a ratio of 5/20/75 (croton oil vehicle)] are applied to the outer side of the right ear of 3-4 week old made CD-1 mice (8 animals per group). The test compounds are dissolved directly in the 1% croton oil solution at various concentrations and coapplied. Control animals receive 25 μl of croton oil vehicle on the right ear. Biopsy punches are removed at 6 hours from the right ear of the animals using a 6 mm skin trephine (Roboz, Washington, D.C.) and the wet weight of the ear punches is determined. The weight of the biopsy punches is a measure of ear inflammation, primarily edema. The data are expressed as percent inhibition relative to control groups.
The mark [3] stands for this setting: read-out: Inhib of HSF-PLA2, % inhibition.

On to `CCCCCCCCCCCCCCCCCCOc1cc(OCCCOc2ccc(C(C)(C)C)cc2)cc(N(CC(=O)O)CC(=O)O)c1` [Example 177, N-(Carboxymethyl)-N-[3-[3-[4-(1,1-dimethylethyl)phenoxy]propoxy]-5-(octadecyloxy)phenyl]glycine], for which the inhibition in vivo at 30 mg/kg amounted to 57% in experiment [1] and 41% with PLA2 Rat Paw Edema. Moreover, at HSF-PLA2 (setting [3]), the inhibition at 1 µM was found to be 95%. Moreover, the “% Inhib of Croton Oil Mouse Ear Edema (1 mg)” value (shortened to “% Inhib”) in experiment [2] is listed as 22%.
Turning to `CCCCCCCCCCOc1cccc(N(CC(=O)O)CC(=O)O)c1` [Example 36a, N-(carboxymethyl)-N-[3-(decyloxy)phenyl]glycine], the inhibition in vivo at 30 mg/kg in experiment [1] was 47%; in the experiment on PLA2 Rat Paw Edema, 35%. For the same molecule, on HSF-PLA2, the IC50 was determined as 2900 nM.
As to `CCCCCCCCCCCCCCCCCCOc1cc(OCCCOc2cccc(OC)c2)cc(N(CC(=O)O)CC(=O)O)c1` [Example 58j, N-(carboxymethyl)-N-[3-[3-(3-methoxyphenoxy)propoxy]-5-(octadecyloxy)phenyl]glycine], the inhibition in vivo at 30 mg/kg in the experiment on PLA2 Rat Paw Edema came to 57%. The IC50 at HSF-PLA2 came out at 60 nM. In experiment [2], the “% Inhib” value came out at 28%.
With `CCCCCCCCCCCCCCOC(=O)c1cc(C(=O)OCCCCCCCCCCCCCC)cc(N(CC(=O)O)CC(=O)O)c1` [Example 25, N-(Carboxymethyl)-N-[3,5-bis[(tetradecyloxy)carbonyl]phenyl]glycine], in the experiment with PLA2 Rat Paw Edema, the inhibition in vivo at 30 mg/kg stood at 17%. At HSF-PLA2 (setting [3]), the inhibition at 1 µM is 48%. For the same molecule, in experiment [2], the “% Inhib” value worked out at 62%.
For `CCCCCCCCCCOc1cc(OCCCCCCCCCC)cc(N(CC(N)=O)CC(=O)O)c1.N` [Example 32, N-(Carbamoylmethyl)-N-[3,5-bis(decyloxy)phenyl]glycine ammonium salt], in that order: 23%, 48% and 54%.
Regarding `CCCCCCCCCCCCCCCCCCNC(=O)Nc1cccc(N(CC(=O)O)CC(=O)O)c1` [Example 36e, N-(carboxymethyl)-N-[3-[[(octadecylamino)carbonyl]amino]phenyl]glycine], in the experiment with PLA2 Rat Paw Edema, the inhibition in vivo at 30 mg/kg amounted to 30%. Besides, the inhibition at 5 µM at HSF-PLA2 ((5 μM), read-out: Inhib of HSF-PLA2, % inhibition) stood at 74%. Moreover, in experiment [2], the “% Inhib” value is recorded as 31%.
Take `CCCCCCCCCCCCCCCCCCOc1cc(OCCCOc2ccc(O)cc2)cc(N(CC(=O)O)CC(=O)O)c1` [Example 58l, N-(carboxymethyl)-N-[3-[3-(4-hydroxyphenoxy)propoxy]-5-(octadecyloxy)phenyl]glycine]: the inhibition in vivo at 30 mg/kg in the experiment on PLA2 Rat Paw Edema was 53%. Besides, the inhibition at 1 µM at HSF-PLA2 (setting [3]) was found to be 81%. Also, in experiment [2], the “% Inhib” value was 76%.
For `CCCCCCCCCCOc1cc(C(=O)O)cc(N(CC(=O)O)CC(=O)O)c1` [Example 69d, N-[3-carboxy-5-(decyloxy)phenyl]-N-(carboxymethyl)glycine], in that order: 0%, 7% and 63%.
As to `CCCCCCCCCCNC(=O)c1cc(NCC(=O)O)cc(C(=O)NCCCCCCCCCC)c1` [Example 12, N-[3,5-Bis[(decylamino)carbonyl]phenyl]glycine], the inhibition in vivo at 30 mg/kg in the experiment on PLA2 Rat Paw Edema stood at 34%. Besides, the IC50 on HSF-PLA2 worked out at 5200 nM. Also, the “% Inhib” value in experiment [2] is 70%.
On to `CCCCCCCCCCCCCCCCCCOc1cc(OCCCCc2ccc3cc(O)c(O)cc3c2)cc(N(CC(=O)O)CC(=O)O)c1` [Example 154, N-(Carboxymethyl)-N-[3-[4-(2,3-dihydroxy-6-naphthalenyl)butoxy]-5-(octadecyloxy)phenyl]glycine], for which the figures for the inhibition in vivo at 30 mg/kg (in experiment [1]; in the experiment with PLA2 Rat Paw Edema) were 70% and 78%, respectively. Also, the inhibition at 1 µM on HSF-PLA2 (setting [3]) was determined as 96%.
On to `COC(=O)CCCCCCCCCCOc1cc(OCCCCCCCCCCC(=O)OC)cc(N(CC(=O)O)CC(=O)O)c1` [Example 6j, N-(carboxymethyl)-N-[3,5-bis[(11-methoxy-11-oxoundecyl)oxy]phenyl]glycine], for which the inhibition in vivo at 30 mg/kg with PLA2 Rat Paw Edema stood at 0%. Moreover, the IC50 at HSF-PLA2 worked out at 300 nM. The “% Inhib” value in experiment [2] amounted to 66%.

One may read the inhibition as the change of the read-out against control, counted positive when it falls. The term IC50 denotes the concentration needed to halve the response being measured.
